Assay results as given in article PMC7018803, “A randomized, placebo-controlled, phase 1 study to evaluate the effects of TAK-063 on ketamine-induced changes in fMRI BOLD signal in healthy subjects” (Psychopharmacology, 2019).

Legend:
[1] = tested on: healthy male subjects; experiment: Ketamine-induced changes in fMRI BOLD signal during resting state; format: in vivo, human
Method: Subjects checked in on day − 1 of each treatment period during which vital signs, electrocardiogram (ECG), and laboratory safety tests were repeated. On day 1 of each treatment period, subjects received a 3-, 10-, or 30-mg TAK-063 dose or placebo tablets. Participants then relaxed, slept, or watched movies while remaining in the research environment. Ketamine (0.12 mg/kg intravenous bolus over 60 s followed by a continuous infusion of 0.31 mg/kg/h over approximately 150 min) was administered 4 h after TAK-063 or placebo (Fig. 1). This ketamine dose was based on a previous study that achieved steady-state concentrations of 75 ng/mL and provided a robust BOLD signal with minimal psychotomimetic symptoms (De Simoni et al. [2013]).
The scanning protocol for the current study was very comprehensive and included multiple MR approaches. This publication reports the BOLD fMRI data for the working memory task, but also resting state fMRI. The magnetic scanning portion of the neuroimaging test battery was initiated 20 min before ketamine dosing. Imaging was performed using a 3 Tesla Siemens Trio scanner. The MR scanning protocol was initiated 20 min before ketamine dosing; prior to scanning, a structural magnetization prepared rapid gradient echo (MPRAGE) scan was collected. As part of the scanning protocol, each subject received 20 min of scanning − 10 min arterial spin labeling (ASL) plus 10 min resting BOLD prior to ketamine infusion. After ketamine infusion, the resting state fMRI BOLD acquisition continued for an additional 10 min. Next, a Spatial Working Memory task-induced fMRI BOLD acquisition was performed for 15 min. Following these BOLD acquisitions, another 10 min ASL scan was acquired and a 10-min T1 relaxometry scan was conducted. The MR scanning sequence ended with a 5-min MPRAGE acquisition.
Fifty sequential gradient-echo echoplanar images (EPIs) sensitive to blood oxygenation level-dependent (BOLD) signal were collected in contiguous slices of 6-mm thickness, with 3000-ms repetition time, 40-ms echo time, 20 × 20-cm field of view, a 64 × 64 image matrix, 70° flip angle, and an in-plane resolution of 3 × 3 mm. A working memory challenge based on the expectancy A-X Continuous Performance Test (AX-CPT) paradigm was presented. The AX-CPT task was implemented in Eprime and presents 144 trials in four blocks of 36 trials. Before scanning, participants practiced the task (Barch et al. [2001]; MacDonald et al. [2003]).
We conducted a number of pre-processing steps to standardize examination of data after acquisition. These steps included (a) using the anatomical image (T1 weighted MPRAGE acquired for each subject at the beginning of the imaging session) to determine the parameters for spatial normalization to the EPI template image supplied with statistical parametric mapping (SPM) using a 12-parameter transformation; (b) registering functional images to correct for subject movement during the experimental paradigm; (c) normalizing functional images to transform images from analyzed subjects into the same standard space; (d) smoothing images (8-mm full width at half maximum [FWHM]) to minimize normalization artifacts and improve signal to noise ratio; (e) applying a high pass filter of 1200 s to the data following spatial smoothing to minimize the influence of very low frequency noise present in fMRI BOLD data without distorting the ketamine response profile. […]

[2] = tested on: anesthetized rats; design: method as in Tomimatsu et al. [2016]; settings: ref Tomimatsu et al. [2016], cited from earlier work
[3] = tested on: rodent models of cognitive impairment; design: method as in Shiraishi et al. [2016]; settings: ref Shiraishi et al. [2016]; cited from earlier work
[4] = tested on: rats; design: method as in Suzuki et al. [2016]; settings: ref Suzuki et al. [2016]; cited from earlier work

SMILES: COc1cn(-c2ccc(-n3cccn3)cc2F)nc(-c2ccnn2-c2ccccc2)c1=O [TAK-063]
- effect sizes at the 10-mg dose ([1]; 10 mg, ketamine-induced BOLD changes, resting state): generally smaller relative to the effects of other dose groups
- effect on ketamine-induced changes in resting state fMRI BOLD signals ([1]; many key regions examined, 3-30 mg): meaningful effect attenuating ketamine-induced changes
- ketamine-induced increases in percent BOLD signal change in cortical regions ([2]; anesthetized rats, hippocampus, cingulate and retrosplenial cortex): reduced
- percent BOLD signal change during the resting state in caudate putamen and substantia nigra ([2]; rat): increased
- MK-801 and phencyclidine-induced effects on spatial working memory, attentional set-shifting, and executive function [3]: reversed
- MK-801-induced effects on hyperactivity [4]: reversed
